Test results as given in patent US7495018B2, “Substituted 1,3-thiazole compounds, their production and use” (Takeda Pharmaceutical Company Limited, priority 2000, dated 2009).

Row | melting point | SMILES
1 | 153 to 154 °C | Cc1cccc(-c2nc(-c3ccc(S(C)(=O)=O)cc3)sc2-c2ccnc(N3CCN(C)CC3)c2)c1 [Example Compound 37-5, 4-(3-methylphenyl)-5-[2-(4-methyl-1-piperazinyl)-4-pyridyl]-2-(4-methylsulfonylphenyl)-1,3-thiazole]
2 | 236 to 237 °C | CC(=O)Nc1nc(-c2cc(C)cc(C)c2)c(-c2ccnc(C)c2)s1 [Example Compound 40-1, N-[4-(3,5-dimethylphenyl)-5-(2-methyl-4-pyridyl)-1,3-thiazol-2-yl]acetamide]
3 | 185 to 187 °C | CC(=O)Nc1nc(-c2cccc(C)c2)c(-c2cc(C)nc(C)c2)s1 [Example Compound 40-2, N-[5-(2,6-dimethyl-4-pyridyl)-4-(3-methylphenyl)-1,3-thiazol-2-yl]acetamide]
4 | 266 to 267 °C | CC(=O)Nc1nc(-c2cc(C)cc(C)c2)c(-c2cc(C)nc(C)c2)s1 [Example Compound 40-3, N-[4-(3,5-dimethylphenyl)-5-(2,6-dimethyl-4-pyridyl)-1,3-thiazol-2-yl]acetamide]
5 | 175 to 178 °C | Cc1cccc(-c2nc(NC(=O)c3cccnc3)sc2-c2ccnc(C)c2)c1 [Example Compound 41, N-[4-(3-methylphenyl)-5-(2-methyl-4-pyridyl)-1,3-thiazol-2-yl]nicotinamide]
6 | 203 to 206 °C | Cc1cc(C)cc(-c2nc(NC(=O)c3cccnc3)sc2-c2ccnc(C)c2)c1 [Example Compound 42-1, N-[4-(3,5-dimethylphenyl)-5-(2-methyl-4-pyridyl)-1,3-thiazol-2-yl]nicotinamide]
7 | 267 to 268 °C | Cc1cc(C)cc(-c2nc(NC(=O)c3cccnc3)sc2-c2cc(C)nc(C)c2)c1 [Example Compound 42-2, N-[4-(3,5-dimethylphenyl)-5-(2,6-dimethyl-4-pyridyl)-1,3-thiazol-2-yl]nicotinamide]
8 | 201 to 203 °C | Cc1cccc(-c2nc(NC(=O)c3cccnc3)sc2-c2ccnc(NC3CCCCC3)c2)c1 [Example Compound 42-3, N-[5-(2-cyclohexylamino-4-pyridyl)-4-(3-methylphenyl)-1,3-thiazol-2-yl]nicotinamide]
9 | 215 to 216 °C | Cc1cccc(-c2nc(NC(=O)c3cccnc3)sc2-c2ccnc(NC3CCCC3)c2)c1 [Example Compound 42-4, N-[5-(2-cyclopentylamino-4-pyridyl)-4-(3-methylphenyl)-1,3-thiazol-2-yl]nicotinamide]
10 | 136 to 138 °C | O=C(Nc1nc(-c2ccc(F)cc2)c(-c2ccnc(NC3CCCCC3)c2)s1)c1cccnc1 [Example Compound 42-5, N-[5-(2-cyclohexylamino-4-pyridyl)-4-(4-fluorophenyl)-1,3-thiazol-2-yl]nicotinamide]
11 | 261 to 262 °C | Cc1cc(-c2sc(NC(=O)c3cccnc3)nc2-c2ccc(F)cc2)ccn1 [Example Compound 42-7, N-[4-(4-fluorophenyl)-5-(2-methyl-4-pyridyl)-1,3-thiazol-2-yl]nicotinamide]
12 | 147 to 148 °C | Cc1cccc(-c2nc(N(C)C(=O)c3cccnc3)sc2-c2ccnc(NC3CCCCC3)c2)c1 [Example Compound 42-8, N-[5-(2-cyclohexylamino-4-pyridyl)-4-(3-methylphenyl)-1,3-thiazol-2-yl]-N-methylnicotinamide]
13 | 148 °C | Cc1cccc(-c2nc(N(C)C(=O)c3cccnc3)sc2-c2ccnc(NC3CCCC3)c2)c1 [Example Compound 42-9, N-[5-(2-cyclopentylamino-4-pyridyl)-4-(3-methylphenyl)-1,3-thiazol-2-yl]N-methylnicotinamide]
14 | 228 to 230 °C | Cc1cccc(-c2nc(NC(=O)c3ccc(Cl)nc3)sc2-c2ccnc(C)c2)c1 [Example Compound 43, 6-chloro-N-[4-(3-methylphenyl)-5-(2-methyl-4-pyridyl)-1,3-thiazol-2-yl]nicotinamide]
15 | 255 to 256 °C | Cc1cccc(-c2nc(NC(=O)c3ccc(Cl)nc3)sc2-c2ccnc(NC3CCCCC3)c2)c1 [Example Compound 44-1, 6-chloro-N-[5-(2-cyclohexylamino-4-pyridyl)-4-(3-methylphenyl)-1,3-thiazol-2-yl]nicotinamide]
16 | 211 to 212 °C | Cc1cccc(-c2nc(NC(=O)c3ccc(Cl)nc3)sc2-c2ccnc(NC3CCCC3)c2)c1 [Example Compound 44-2, 6-chloro-N-[5-(2-cyclopentylamino-4-pyridyl)-4-(3-methylphenyl)-1,3-thiazol-2-yl]nicotinamide]
17 | 271 to 273 °C | Cc1cc(C)cc(-c2nc(NC(=O)c3ccc(Cl)nc3)sc2-c2ccnc(C)c2)c1 [Example Compound 44-3, 6-chloro-N-[4-(3,5-dimethylphenyl)-5-(2-methyl-4-pyridyl)-1,3-thiazol-2-yl]nicotinamide]
18 | 171 to 172 °C | Cc1cccc(-c2nc(N(C)C(=O)c3ccc(Cl)nc3)sc2-c2ccnc(NC3CCCCC3)c2)c1 [Example Compound 44-4, 6-chloro-N-[5-(2-cyclohexylamino-4-pyridyl)-4-(3-methylphenyl)-1,3-thiazol-2-yl]-N-methylnicotinamide]

Row | melting point | SMILES
19 | 233 to 234 °C | Cc1cccc(-c2nc(NC(=O)c3ccc(C)nc3)sc2-c2ccnc(C)c2)c1 [Example Compound 45, 6-methyl-N-[4-(3-methylphenyl)-5-(2-methyl-4-pyridyl)-1,3-thiazol-2-yl]nicotinamide]
20 | 242 to 243 °C | Cc1cccc(-c2nc(NC(=O)c3ccc(C)nc3)sc2-c2ccnc(NC3CCCCC3)c2)c1 [Example Compound 46-1, N-[5-(2-cyclohexylamino-4-pyridyl)-4-(3-methylphenyl)-1,3-thiazol-2-yl]-6-methylnicotinamide]
21 | 213 to 214 °C | Cc1cccc(-c2nc(NC(=O)c3ccc(C)nc3)sc2-c2ccnc(NC3CCCC3)c2)c1 [Example Compound 46-2, N-[5-(2-cyclopentylamino-4-pyridyl)-4-(3-methylphenyl)-1,3-thiazol-2-yl]-6-methylnicotinamide]
22 | 252 to 253 °C | Cc1cc(C)cc(-c2nc(NC(=O)c3ccc(C)nc3)sc2-c2ccnc(C)c2)c1 [Example Compound 46-3, N-[4-(3,5-dimethylphenyl)-5-(2-methyl-4-pyridyl)-1,3-thiazol-2-yl]-6-methylnicotinamide]
23 | 117 to 118 °C | Cc1cccc(-c2nc(N(C)C(=O)c3ccc(C)nc3)sc2-c2ccnc(NC3CCCC3)c2)c1 [Example Compound 46-4, N-[5-(2-cyclopentylamino-4-pyridyl)-4-(3-methylphenyl)-1,3-thiazol-2-yl]-N,6-dimethylnicotinamide]
24 | 224 to 226 °C | COc1ccc(C(=O)Nc2nc(-c3cccc(C)c3)c(-c3ccnc(C)c3)s2)cn1 [Example Compound 47, 6-methoxy-N-[4-(3-methylphenyl)-5-(2-methyl-4-pyridyl)-1,3-thiazol-2-yl]nicotinamide]
25 | 191 to 192 °C | COc1ccc(C(=O)Nc2nc(-c3cccc(C)c3)c(-c3ccnc(NC4CCCCC4)c3)s2)cn1 [Example Compound 48-1, N-[5-(2-cyclohexylamino-4-pyridyl)-4-(3-methylphenyl)-1,3-thiazol-2-yl]-6-methoxynicotinamide]
26 | 219 to 221 °C | COc1ccc(C(=O)Nc2nc(-c3cccc(C)c3)c(-c3ccnc(NC4CCCC4)c3)s2)cn1 [Example Compound 48-2, N-[5-(2-cyclopentylamino-4-pyridyl)-4-(3-methylphenyl)-1,3-thiazol-2-yl]-6-methoxynicotinamide]
27 | 242 to 244 °C | COc1ccc(C(=O)Nc2nc(-c3cc(C)cc(C)c3)c(-c3ccnc(C)c3)s2)cn1 [Example Compound 48-3, N-[4-(3,5-dimethylphenyl)-5-(2-methyl-4-pyridyl)-1,3-thiazol-2-yl]-6-methoxynicotinamide]
28 | 169 to 170 °C | COc1ncccc1C(=O)Nc1nc(-c2cccc(C)c2)c(-c2ccnc(C)c2)s1 [Example Compound 49, 2-methoxy-N-[4-(3-methylphenyl)-5-(2-methyl-4-pyridyl)-1,3-thiazol-2-yl]nicotinamide]
29 | 247 to 250 °C | COc1ccc(-c2nc(NC(C)=O)sc2-c2ccnc(N)c2)cc1 [Example Compound 50, N-[5-(2-amino-4-pyridyl)-4-(4-methoxyphenyl)-1,3-thiazol-2-yl]acetamide]
30 | 219 to 222 °C | COc1ccc(-c2nc(NC(=O)c3ccccc3)sc2-c2ccnc(N)c2)cc1 [Example Compound 51, N-[5-(2-amino-4-pyridyl)-4-(4-methoxyphenyl)-1,3-thiazol-2-yl]benzamide]
31 | 219 to 222 °C | Cc1cc(C)cc(-c2nc(NC(=O)Nc3ccccc3)sc2-c2cc(C)nc(C)c2)c1 [Example Compound 53-1, N-[4-(3,5-dimethylphenyl)-5-(2,6-dimethyl-4-pyridyl)-1,3-thiazol-2-yl]-N′-phenylurea]
32 | 198 to 199 °C | Cc1cccc(-c2nc(NC(=O)Nc3ccccc3)sc2-c2ccnc(NC3CCCCC3)c2)c1 [Example Compound 53-2, N-[5-(2-cyclohexylamino-4-pyridyl)-4-(3-methylphenyl)-1,3-thiazol-2-yl]-N′-phenylurea]
33 | 188 to 190 °C | Cc1cccc(-c2nc(NC(=O)Nc3ccccc3)sc2-c2ccnc(NC3CCCC3)c2)c1 [Example Compound 53-3, N-[5-(2-cyclopentylamino-4-pyridyl)-4-(3-methylphenyl)-1,3-thiazol-2-yl]-N′-phenylurea]
34 | 168 to 169 °C | Cc1cccc(-c2nc(NC(=O)Nc3ccccc3)sc2-c2ccnc(C)c2)c1 [Example Compound 53-4, N-[4-(3-methylphenyl)-5-(2-methyl-4-pyridyl)-1,3-thiazol-2-yl]-N′-phenylurea]
35 | 151 to 153 °C | Cc1cc(C)cc(-c2nc(-c3ccc([S+](C)[O-])cc3)sc2-c2ccnc(C)c2)c1 (stereo not drawn) [Example Compound 56-1, 4-(3,5-dimethylphenyl)-5-(2-methyl-4-pyridyl)-2-(4-methylsulfinylphenyl)-1,3-thiazole]
36 | 151 to 154 °C | Cc1cc(C)cc(-c2nc(-c3ccc([S+](C)[O-])cc3)sc2-c2cc(C)nc(C)c2)c1 (stereo not drawn) [Example Compound 56-2, 4-(3,5-dimethylphenyl)-5-(2,6-dimethyl-4-pyridyl)-2-(4-methylsulfinylphenyl)-1,3-thiazole]
